According to patent US12473332B2, “Modified peptides and associated methods of use” (Advanced Technologies For Novel Therapeutics, LLC, priority 2019, dated 2025):
Where no end group is shown, it is not given here.

Legend:
PKAc = PKAc (Homo sapiens, UniProt P17612); experiment: independent kinase assays on PKAc catalytic activity; format: biochemical
AKT = biological target: T1, AKT (Mus musculus, UniProt P31750); experiment: stereotactic injection into brain striatum, phosphorylation of AKT substrates; format: in vivo; details: vs DMSO hemisphere
T1 construct: from tissue; host or cells: brain striatum, in vivo
Protocol: After the stereotactic injection of ZaTa peptide, a decrease in the phosphorylation level of AKT substrates in the striatum of a brain hemisphere was observed as compared to the other hemisphere that was injected with DMSO as the vehicle. […] As a specific substrate, the phosphorylation level of GSK-3β at Ser-9 was also evaluated. […] The decrease was specific to the AKT phosphorylation site on GSK-3β at Ser-9, since a change in the phosphorylation level of GSK-3β at Tyr-216 or GSK-3α at Tyr-279 was not observed. Moreover, the in vivo reduction of the phosphorylation of AKT substrates was more obvious at the injection site, since a significant change in the phosphorylation of AKT substrates in the frontal cortex or cerebellum between the two hemispheres was not observed.
(§1) The phenotypic consequence of disrupting the AKT-PKAc complex was also determined. ZaTa peptide was injected into the striatum of one hemisphere of the brain and DMSO, as vehicle, was injected into the other brain hemisphere of an adult C57BL/6 mouse under anesthesia. The brain was removed and dissected. Equal protein amounts from each hemisphere were subjected to immunoprecipitation by an anti-AKT antibody. […] To compare PKAc protein levels in the ZaTa- and vehicle-treated brain hemisphere lysates, western blot analysis was conducted.

p70S6K = biological target: T2, p70S6K (Mus musculus, UniProt Q8BSK8); experiment: stereotactic injection into brain, western blot with phospho-specific antibodies; format: in vivo; details: vs DMSO hemisphere
T2 construct: from tissue; host or cells: brain hemisphere, in vivo
Protocol: To analyze in vivo selectivity, ZaTa was injected into one hemisphere and DMSO in the other hemisphere, as above, and a series of western blot analyses was performed with phospho-specific antibodies which recognize a phosphorylated substrate or each one of the kinases that ZaTa inhibited at higher concentrations in vitro. […] Given the high functional and structural homology between p70S6K and AKT, the in vivo inhibitory effect of ZaTa on p70S6K was contemplated. Furthermore, the in vivo effect of ZaTa on the phosphorylation levels of substrates for PKA, PKC, CDKs using phospho-specific antibodies recognizing the phosphorylated consensus sites of these kinases was analyzed.

AKT-PKAc complex = biological target: T3, AKT-PKAc complex (Mus musculus, UniProt P31750); experiment: AKT immunoprecipitation from striatum after stereotactic injection; format: in vivo, C57BL/6 mouse; details: ZaTa vs vehicle hemisphere
T3 construct: ZaTa could disrupt the physical complex between AKT and PKAc in vivo; from tissue; host or cells: mouse striatum
Protocol: as §1

N2a cells = experiment: MTT-based proliferation assay; format: cell-based
Protocol: AKT affects a network that positively regulates G1/S cell cycle progression through several mechanisms that involve the expression and subcellular localization of the CDK inhibitor p27^Kip1 (Blain and Massague (2002) Nat. Med. 8:1076-1078; Liang, et al. (2002) supra; Shin, et al. (2002) supra; Viglietto, et al. (2002) supra). Based on these studies, the effect of ZaTa peptide on cell proliferation was assessed. […] Capturing live images of cultured N2a cells in the presence of different concentrations of the ZaTa peptide confirmed an obvious reduction in the number of dividing cells.
Based on the importance of the C-terminal arm of ZaTa for its inhibitory action on AKT, it was determined whether the free hydroxyl groups on residues Thr-8, Thr-10 (equivalent to Thr-197 in full-length PKAc), Thr-14 and Tyr-17 were important for the biological activity of this peptide. Mutants of ZaTa peptide were synthesized by replacing Thr-8 or Thr-10 residues with Asp (ZaTa^T8D and ZaTa^T10D, respectively) as an amino acid with a negatively charged side chain. Mutants of ZaTa with the hydrophilic positively charged amino acid Arg at either position Thr-14 or Tyr-17 (ZaTa^T14R and ZaTa^Y17R, respectively) were also synthesized. […] The inhibitory effect of ZaTa peptide on cell proliferation was reversible, to a large extent, after the removal of ZaTa treatment.

T1 sequence (P31750 whole entry): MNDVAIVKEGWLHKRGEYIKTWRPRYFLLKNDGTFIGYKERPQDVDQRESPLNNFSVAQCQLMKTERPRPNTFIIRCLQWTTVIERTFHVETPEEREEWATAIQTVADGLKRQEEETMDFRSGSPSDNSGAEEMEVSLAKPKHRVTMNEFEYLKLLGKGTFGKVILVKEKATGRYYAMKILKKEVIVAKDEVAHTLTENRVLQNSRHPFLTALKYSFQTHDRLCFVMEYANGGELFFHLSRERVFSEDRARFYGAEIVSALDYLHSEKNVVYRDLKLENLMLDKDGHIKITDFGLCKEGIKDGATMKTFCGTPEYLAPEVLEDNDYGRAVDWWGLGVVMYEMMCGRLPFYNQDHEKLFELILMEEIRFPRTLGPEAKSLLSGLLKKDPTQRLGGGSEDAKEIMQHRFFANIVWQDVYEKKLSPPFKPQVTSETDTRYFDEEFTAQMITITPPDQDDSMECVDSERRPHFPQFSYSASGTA
T3 sequence (P31750 whole entry, one chain of several): as the sequence (P31750 whole entry) above
T2 sequence (Q8BSK8 whole entry): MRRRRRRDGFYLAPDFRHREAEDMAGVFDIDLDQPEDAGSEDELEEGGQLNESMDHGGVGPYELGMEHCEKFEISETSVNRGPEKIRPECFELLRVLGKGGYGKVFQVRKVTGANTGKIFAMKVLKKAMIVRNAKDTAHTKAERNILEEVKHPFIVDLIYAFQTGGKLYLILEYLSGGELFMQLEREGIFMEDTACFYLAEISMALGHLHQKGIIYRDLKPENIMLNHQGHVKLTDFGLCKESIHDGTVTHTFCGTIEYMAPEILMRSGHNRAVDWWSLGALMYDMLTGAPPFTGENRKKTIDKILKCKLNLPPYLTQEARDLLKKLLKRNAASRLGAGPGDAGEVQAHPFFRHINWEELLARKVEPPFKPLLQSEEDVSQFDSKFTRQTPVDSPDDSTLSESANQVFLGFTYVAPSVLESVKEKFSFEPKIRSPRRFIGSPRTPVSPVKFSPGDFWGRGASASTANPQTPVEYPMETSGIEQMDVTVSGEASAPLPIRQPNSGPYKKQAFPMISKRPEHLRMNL

AKRVKGRTWTLCGTPEY [Peptide 53, A-K-R-V-K-G-R-T-W-T-L-C-G-T-P-E-Y]
inhibitory effect on catalytic activity of PKAc (PKAc): did not exhibit any inhibitory effect
phosphorylation level of AKT substrates in vivo (AKT; one hour after stereotactic injection): significant decrease in the phosphorylation level of AKT substrates
phosphorylation level of GSK-3β at Ser-9 in vivo (AKT; stereotactic injection): specific reduction
in vivo inhibition of p70S6K (p70S6K): potent in vivo inhibition
amount of PKAc in physical contact with AKT (AKT-PKAc complex): dramatically reduced
number of live cells after removal of treatment (reversibility) (N2a cells; 24 hours after removal of 10 μM, vs DMSO vehicle): no significant differences in the number of live cells
number of live cells (N2a cells; MTT): dose-dependent decrease in the number of live cells
dose causing a significant decrease in the number of live cells (N2a cells; doses as low as): 2 µM
